Read-outs that look alike come from different tables or passages of the source.
Tests used:
[1] = system: OVISE (JCRB1043, CCNE1-amplified); assay: OVISE EdU incorporation cell proliferation assay (CDK2-dependent); type: cell-based; conditions: for IC50 / FS SKOV-3/OVISE / FS p-H3/OVISE: Table O; for IC50: cellular assay, read-out: CDK2 OVISE IC50; for FS SKOV-3/OVISE / FS p-H3/OVISE: fold selectivity; for FS SKOV-3/OVISE: cellular SKOV-3 IC50 over OVISE IC50; for FS p-H3/OVISE: cellular p-H3 IC50 over OVISE IC50; for CDK2 OVISE IC50 fold change in potency versus Comparator D: Table R; for CDK2 OVISE IC50 fold change in potency versus Comparator D / CDK2 OVISE IC50 fold change in potency versus Comparator E: in brackets after OVISE IC50; for CDK2 OVISE IC50 fold change in potency versus Comparator E: Table S; for CDK2 cell potency compared with Comparator E: CDK2 OVISE cellular assay data
Procedure, shortened: (§1)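 EdU incorporation (0.5 μM final, last 8 h) follows a 16 h compound exposure at 37 °C, 5% CO2 in RPMI plus 10% FBS, 0.5% DMSO. After fixation, imaging scores EdU-positive cells; a 4-parameter logistic fit of that fraction gives IC50.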

[2] = target: T1, Cyclin Dependent Kinase 1/Cyclin A2 (CDK1-cycA2) (Homo sapiens, UniProt P06493); assay: CDK1-cycA2 TR-FRET (Lance) enzyme assay; type: biochemical; conditions: for Ki: Table O, enzymatic assay; for FS CDK1/CDK2: fold selectivity, enzymatic Ki ratio
T1 construct: purchased ProQinase 0134-0054-1
Procedure, shortened: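 TR-FRET (Lance) detection of phospho-4E-BP1 with a europium-labelled antibody after EDTA quench (15 mM final); signal taken as acceptor/donor ratio. Enzyme and compound were pre-incubated 30 min in HEPES pH 7.5 buffer with MgCl2, TCEP, BGG and Brij 35. Ki derived by Morrison fit.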

[3] = target: T2, Cyclin Dependent Kinase 2/Cyclin E1 (CDK2-cycE1) (Homo sapiens, UniProt P24941); assay: CDK2-cycE1 TR-FRET (LANCE) enzyme assay; type: biochemical; conditions: for FS CDK1/CDK2 / FS CDK4/CDK2: fold selectivity; for FS CDK1/CDK2: enzymatic CDK1 Ki over CDK2 Ki; for FS CDK4/CDK2: enzymatic CDK4 Ki over CDK2 Ki; for CDK2 Ki fold change in potency versus Comparator D / CDK2 Ki fold change in potency versus Comparator E: in brackets after CDK2 Ki
T2 construct: purchased ProQinase 0050-0055-1
Procedure, shortened: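 Kinase reaction buffer: 50 mM HEPES pH 7.5, 10 mM MgCl2, 2 mM TCEP, 0.05% BGG, 0.01% Brij 35, with 30 min compound–enzyme pre-incubation.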

[4] = target: T3, Cyclin Dependent Kinase 4/Cyclin D3 (CDK4-cycD3) (Homo sapiens, UniProt P11802); assay: CDK4-cycD3 TR-FRET (LANCE) enzyme assay; type: biochemical; conditions: for Ki: Table O, enzymatic assay; for FS CDK4/CDK2: fold selectivity, enzymatic Ki ratio
T3 construct: purchased Carna Biosciences 04-105
Procedure, shortened: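 Compound dose responses pre-incubated 30 min with enzyme mix in 50 mM HEPES pH 7.5, 10 mM MgCl2, 2 mM TCEP, 0.05% BGG, 0.01% Brij 35. Reaction quenched with EDTA (15 mM final); Eu-anti-phospho-4E-BP1 TR-FRET detection, acceptor/donor ratio. Ki derived by Morrison equation.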

SKOV-3 (ATCC HTB-77) = assay: SKOV-3 EdU incorporation cell proliferation assay (CDK4/6-dependent); type: cell-based; conditions: for IC50: Homo sapiens, cellular assay, read-out: CDK4/6 SKOV-3 IC50; for selectivity for CDK2 over CDK4 compared with Comparator E: SKOV-3/OVISE fold-selectivity cellular assay data; for FS SKOV-3/OVISE: fold selectivity, cellular IC50 ratio
Procedure, shortened: as §1

HCT116 cells = assay: p-H3 HCT-116 mitotic release cell proliferation assay (cellular CDK1); type: cell-based; conditions: Homo sapiens, HCT-116; Table O, cellular assay; read-out: CDK1 p-H3 IC50
Procedure, shortened: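 Phospho-Histone H3 (Ser10) in lysates was quantified by a two-antibody HTRF FRET read (≥2 h, room temperature). Before this, HCT116 cells held in mitosis by 16 h of 500 nM nocodazole were treated with compound for 4 h at 37 °C, 0.1% DMSO.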

[5] = Table O, enzymatic assay, read-out: CDK2 Ki
[6] = Table R, enzymatic assay, read-out: CDK2 Ki
[7] = Table S, enzymatic assay, read-out: CDK2 Ki
[8] = read-out: CDK2 activity / potency (enzymatic assay)

T1 sequence (P06493 whole entry): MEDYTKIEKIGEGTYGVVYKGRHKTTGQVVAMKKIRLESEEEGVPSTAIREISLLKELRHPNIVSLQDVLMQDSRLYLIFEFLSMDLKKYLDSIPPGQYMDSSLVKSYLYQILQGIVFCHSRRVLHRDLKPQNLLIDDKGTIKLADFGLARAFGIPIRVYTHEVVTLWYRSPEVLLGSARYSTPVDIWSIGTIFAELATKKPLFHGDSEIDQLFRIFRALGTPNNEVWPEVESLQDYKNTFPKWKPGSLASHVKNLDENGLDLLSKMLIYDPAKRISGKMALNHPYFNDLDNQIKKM
T1 sequence (P20248 whole entry partner): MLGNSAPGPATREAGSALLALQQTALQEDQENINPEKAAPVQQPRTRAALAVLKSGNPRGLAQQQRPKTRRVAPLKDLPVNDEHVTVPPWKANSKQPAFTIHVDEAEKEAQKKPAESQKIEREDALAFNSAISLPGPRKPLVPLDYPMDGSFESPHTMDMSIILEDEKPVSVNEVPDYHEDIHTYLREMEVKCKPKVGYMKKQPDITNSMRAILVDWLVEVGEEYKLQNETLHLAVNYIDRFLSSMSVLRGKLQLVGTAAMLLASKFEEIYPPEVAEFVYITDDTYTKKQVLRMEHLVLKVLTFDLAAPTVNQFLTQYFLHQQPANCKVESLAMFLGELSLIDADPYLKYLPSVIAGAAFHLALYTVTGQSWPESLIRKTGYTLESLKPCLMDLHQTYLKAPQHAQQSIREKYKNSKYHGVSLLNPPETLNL
T3 sequence (P11802 whole entry): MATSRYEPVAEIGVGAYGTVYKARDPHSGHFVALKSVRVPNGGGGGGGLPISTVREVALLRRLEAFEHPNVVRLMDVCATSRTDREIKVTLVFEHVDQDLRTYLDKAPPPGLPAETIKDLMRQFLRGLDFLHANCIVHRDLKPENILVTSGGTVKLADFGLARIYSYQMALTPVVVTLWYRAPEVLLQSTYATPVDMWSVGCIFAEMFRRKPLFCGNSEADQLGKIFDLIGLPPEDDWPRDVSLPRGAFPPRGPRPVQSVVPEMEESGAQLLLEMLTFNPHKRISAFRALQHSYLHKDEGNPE
T3 sequence (P30281 whole entry partner): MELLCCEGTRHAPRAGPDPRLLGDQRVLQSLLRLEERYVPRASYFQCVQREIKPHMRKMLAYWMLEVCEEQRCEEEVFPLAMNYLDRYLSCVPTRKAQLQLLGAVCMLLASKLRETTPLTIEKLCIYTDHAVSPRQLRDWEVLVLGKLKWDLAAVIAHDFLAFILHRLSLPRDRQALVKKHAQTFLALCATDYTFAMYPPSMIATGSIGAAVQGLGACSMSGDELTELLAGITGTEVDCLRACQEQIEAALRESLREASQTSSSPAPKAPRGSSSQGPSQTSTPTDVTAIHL

Row | Structure (SMILES) | IC50 [1] [µM] | FS SKOV-3/OVISE [1] | FS p-H3/OVISE [1] | CDK2 OVISE IC50 fold change in potency versus Comparator D [1] [fold] | CDK2 OVISE IC50 fold change in potency versus Comparator E [1] [fold] | Ki [2] [µM] | FS CDK1/CDK2 increased over Comparator D, (+) sign ([2]; Table R) | FS CDK1/CDK2 ([2]; Table R) | FS CDK1/CDK2 ([2]; Table S) | Ki [3, 5] [µM] | FS CDK1/CDK2 ([3]; Table O) | FS CDK4/CDK2 ([3]; Table O) | Ki [3, 6] [µM] | CDK2 Ki fold change in potency versus Comparator D ([3]; Table R) [fold] | Ki [3, 7] [µM] | CDK2 Ki fold change in potency versus Comparator E ([3]; Table S) [fold] | Ki [4] [µM] | FS CDK4/CDK2 increased over Comparator D, (+) sign ([4]; Table R) | FS CDK4/CDK2 ([4]; Table R) | FS CDK4/CDK2 ([4]; Table S) | other results
1 | Cc1ccncc1Nc1cc([C@H]2CC[C@@H](OC(=O)NC(C)(C)C)C2)[nH]n1 [Example 4A, (1R,3S)-3-(3-((4-methylpyridin-3-yl)amino)-1H-pyrazol-5-yl)cyclopentyl tert-butylcarbamate] | 0.18 | 71 | 0.72 | 21 | 0.9 | 0.21 | (+) | 78 | 78 | 0.0026 | 78 | 170 | 0.0026 | 1 | 0.0026 | 0.2 | 0.41 | (+) | 170 | 170 | FS CDK1/CDK2 increased over Comparator E, (+) sign ([2]; Table S): (+); FS CDK4/CDK2 increased over Comparator E, (+) sign ([4]; Table S): (+); IC50 (SKOV-3 (ATCC HTB-77); SK-OV-3, Table O): 9.9 µM; selectivity for CDK2 over CDK4 compared with Comparator E (SKOV-3 (ATCC HTB-77)): increase in selectivity for CDK2 over CDK4; FS SKOV-3/OVISE increased over Comparator D, (+) sign (SKOV-3 (ATCC HTB-77); Table R): (+); FS SKOV-3/OVISE (SKOV-3 (ATCC HTB-77); Table R): 71; FS SKOV-3/OVISE increased over Comparator E, (+) sign (SKOV-3 (ATCC HTB-77); Table S): (+); FS SKOV-3/OVISE (SKOV-3 (ATCC HTB-77); Table S): 71; IC50 (HCT116 cells): 0.093 µM
2 | Cc1ccc(Nc2cc([C@H]3CC[C@@H](OC(=O)NC(C)(C)C)C3)[nH]n2)cn1 [Example 4B, (1R,3S)-3-(3-((6-methylpyridin-3-yl)amino)-1H-pyrazol-5-yl)cyclopentyl tert-butylcarbamate] | 0.033 | 12 | 0.70 | 115 | 5.2 | 0.02 | (+) | 38 | 38 | 0.00052 | 38 | 37 | 0.00052 | 5.2 | 0.00052 | 1 | 0.019 | (+) | 37 | 37 | Ki [3, 8]: ≤ 0.001 µM; IC50 (SKOV-3 (ATCC HTB-77); SK-OV-3, Table O): 0.39 µM; FS SKOV-3/OVISE increased over Comparator D, (+) sign (SKOV-3 (ATCC HTB-77); Table R): (+); FS SKOV-3/OVISE (SKOV-3 (ATCC HTB-77); Table R): 12; FS SKOV-3/OVISE (SKOV-3 (ATCC HTB-77); Table S): 12; IC50 (HCT116 cells): 0.023 µM
3 | Cc1cc(Nc2cc([C@H]3CC[C@@H](OC(=O)NC(C)(C)C)C3)[nH]n2)nn(C)c1=O [Example 4D, (1R,3S)-3-(3-((1,5-dimethyl-6-oxo-1,6-dihydropyridazin-3-yl)amino)-1H-pyrazol-5-yl)cyclopentyl tert-butylcarbamate] | 0.026 | 58 | 0.35 | 146 | 6.5 | 0.0037 | (+) | > 59 | >59 | < 0.0001 | >59 | >620 | < 0.0001 | 27 | < 0.0001 | 5.2 | 0.039 | (+) | > 620 | > 620 | CDK2 cell potency compared with Comparator E [1]: more potent CDK2 cell inhibitors compared to Comparator E; Ki [3, 8]: ≤ 0.001 µM; FS CDK4/CDK2 increased over Comparator E, (+) sign ([4]; Table S): (+); IC50 (SKOV-3 (ATCC HTB-77); SK-OV-3, Table O): 1.5 µM; selectivity for CDK2 over CDK4 compared with Comparator E (SKOV-3 (ATCC HTB-77)): increase in selectivity for CDK2 over CDK4; FS SKOV-3/OVISE increased over Comparator D, (+) sign (SKOV-3 (ATCC HTB-77); Table R): (+); FS SKOV-3/OVISE (SKOV-3 (ATCC HTB-77); Table R): 58; FS SKOV-3/OVISE increased over Comparator E, (+) sign (SKOV-3 (ATCC HTB-77); Table S): (+); FS SKOV-3/OVISE (SKOV-3 (ATCC HTB-77); Table S): 58; IC50 (HCT116 cells): 0.0092 µM
4 | CNC(=O)c1ccc(Nc2cc([C@H]3CC[C@@H](OC(=O)NC(C)(C)C)C3)[nH]n2)nc1 [Example 4E, (1R,3S)-3-(3-((5-(methylcarbamoyl)pyridin-2-yl)amino)-1H-pyrazol-5-yl)cyclopentyl tert-butylcarbamate] | 0.096 | 27 | 1.1 | 40 | 1.8 | 0.075 | (+) | 47 | 47 | 0.0016 | 47 | 53 | 0.0016 | 1.7 | 0.0016 | 0.3 | 0.084 | (+) | 53 | 53 | CDK2 cell potency compared with Comparator E [1]: more potent CDK2 cell inhibitors compared to Comparator E; FS CDK4/CDK2 increased over Comparator E, (+) sign ([4]; Table S): (+); IC50 (SKOV-3 (ATCC HTB-77); SK-OV-3, Table O): 2.6 µM; IC50 (SKOV-3 (ATCC HTB-77); SK-OV-3, Table R): 2.6 µM; IC50 (SKOV-3 (ATCC HTB-77); SK-OV-3, Table S): 2.6 µM; selectivity for CDK2 over CDK4 compared with Comparator E (SKOV-3 (ATCC HTB-77)): increase in selectivity for CDK2 over CDK4; FS SKOV-3/OVISE increased over Comparator D, (+) sign (SKOV-3 (ATCC HTB-77); Table R): (+); FS SKOV-3/OVISE (SKOV-3 (ATCC HTB-77); Table R): 27; FS SKOV-3/OVISE increased over Comparator E, (+) sign (SKOV-3 (ATCC HTB-77); Table S): (+); FS SKOV-3/OVISE (SKOV-3 (ATCC HTB-77); Table S): 27; IC50 (HCT116 cells): 0.1 µM
5 | CNC(=O)c1ccnc(Nc2cc([C@H]3CC[C@@H](OC(=O)NC(C)(C)C)C3)[nH]n2)c1 [Example 4F, (1R,3S)-3-(3-((4-(methylcarbamoyl)pyridin-2-yl)amino)-1H-pyrazol-5-yl)cyclopentyl tert-butylcarbamate] | 0.19 | 8.9 | 0.35 | 20 | 0.9 | 0.052 | (+) | 21 | 21 | 0.0025 | 21 | 15 | 0.0025 | 1.1 | 0.0025 | 0.2 | 0.037 | (+) | 15 | 15 | IC50 (SKOV-3 (ATCC HTB-77); SK-OV-3, Table O): 1.7 µM; IC50 (SKOV-3 (ATCC HTB-77); SK-OV-3, Table R): 1.7 µM; IC50 (SKOV-3 (ATCC HTB-77); SK-OV-3, Table S): 1.7 µM; FS SKOV-3/OVISE increased over Comparator D, (+) sign (SKOV-3 (ATCC HTB-77); Table R): (+); FS SKOV-3/OVISE (SKOV-3 (ATCC HTB-77); Table R): 8.9; FS SKOV-3/OVISE (SKOV-3 (ATCC HTB-77); Table S): 8.9; IC50 (HCT116 cells): 0.066 µM
6 | CC(C)(C)NC(=O)O[C@@H]1CC[C@H](c2cc(Nc3ccccn3)n[nH]2)C1 [Example 4G, (1R,3S)-3-(3-(pyridin-2-ylamino)-1H-pyrazol-5-yl)cyclopentyl tert-butylcarbamate] | 0.24 | 6.3 | 1.0 | 16 | 0.7 | 0.075 | (+) | 44 | 44 | 0.0017 | 44 | 16 | 0.0017 | 1.6 | 0.0017 | 0.3 | 0.027 | (+) | 16 | 16 | IC50 (SKOV-3 (ATCC HTB-77); SK-OV-3, Table O): 1.5 µM; IC50 (SKOV-3 (ATCC HTB-77); SK-OV-3, Table R): 1.5 µM; IC50 (SKOV-3 (ATCC HTB-77); SK-OV-3, Table S): 1.5 µM; FS SKOV-3/OVISE increased over Comparator D, (+) sign (SKOV-3 (ATCC HTB-77); Table R): (+); FS SKOV-3/OVISE (SKOV-3 (ATCC HTB-77); Table R): 6.3; FS SKOV-3/OVISE (SKOV-3 (ATCC HTB-77); Table S): 6.3; IC50 (HCT116 cells): 0.24 µM
